Molecular target: T1, RALY (Homo sapiens, UniProt Q9UKM9)
T1 sequence (Q9UKM9 2-306): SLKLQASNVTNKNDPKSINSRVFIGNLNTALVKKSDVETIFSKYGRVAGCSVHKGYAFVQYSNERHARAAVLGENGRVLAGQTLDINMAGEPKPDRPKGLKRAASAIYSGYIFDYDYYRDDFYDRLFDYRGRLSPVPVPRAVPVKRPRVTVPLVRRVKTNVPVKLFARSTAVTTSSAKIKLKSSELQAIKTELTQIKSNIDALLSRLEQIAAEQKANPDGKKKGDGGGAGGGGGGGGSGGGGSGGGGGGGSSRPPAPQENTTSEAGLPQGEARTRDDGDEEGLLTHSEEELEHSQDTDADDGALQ
Experiment: surface plasmon resonance imaging
Format: binding

In the case of `CC(C)[C@H](CN)NC[C@H](C)NS(=O)(=O)c1ccc(C(C)(C)C)cc1` [2470-51, N-((S)-1-(((R)-1-amino-3-methylbutan-2-yl)amino)propan-2-yl)-4-(tert-butyl)benzenesulfonamide], the Kd is reported as 15.5 µM.
